Experimental data as given in patent US20240294488A1, “ISOTOPOLOGES, SALTS, CRYSTALLINE FORMS, STEREOISOMERS, OF METHYLONE AND ETHYLONE AND METHODS OF USE THEREOF” (Terran Biosciences Inc., priority 2021, published 2024).
Structures can show the parent of a compound that is named as a salt.

Experiments:
Sprague-Dawley rats = assay: Rat elevated zero maze model of anxiety; type: in vivo; settings: for frequency of stretched attend postures (SAPs) / time spent in the open arms: 30 min pretest, 5-min test; for anxiogenic effect: across doses tested (2.5-30 mg/kg ip); for anxiolytic effect: at a sufficient dose; for time spent in the open arms: vs vehicle
Description: The rat zero-maze model is a refined alternative to the plus-maze, the most widely used animal model of anxiety, and consists of an elevated annular platform, divided equally into four quadrants. Two opposite quadrants are enclosed by Perspex walls on both the inner and the outer edges of the platform, while the remaining two opposite quadrants are open being enclosed only by a Perspex “lip”. Animals will show a preference for the closed areas, and avoidance of the open sections is assumed to stem from a rodent's natural aversion to open, exposed spaces. The primary index of anxiety, which reflect changes in open arm preference, is the percentage of time spent on the open areas. A reduction in the amount of activity on the open areas is considered to reflect an increase in anxiety. Other, ethologically-based behaviours are also assessed as indices of anxiety. One of the most important is stretched attend postures (SAP) from closed to open quadrants. […] Shepherd, J K; et al., (1994) Behavioural and pharmacological validation of the elevated “zero-maze” as an animal model of anxiety. Psychopharmacol., 116:56-64.
Male Sprague-Dawley 200-250 g (Envigo UK) rats were used. Animals were group-housed (5 per cage; cage size: 40×40×20 cm) in a temperature-controlled environment (22±2° C.), under a 12 h light-dark cycle (lights on: 08:00 hours) for one week prior to testing. Food and water were freely available. Number of animals per group=5. Animals were moved into the experimental room 16-24 hours before testing.
The elevated 0-maze comprises a black Perspex annular platform (105 cm diameter, 10 cm width) elevated to 65 cm above ground level, divided equally into four quadrants. Two opposite quadrants are enclosed by clear red Perspex walls (27 cm high) on both the inner and outer edges of the platform, while the remaining two opposite quadrants are surrounded only by a Perspex “lip” (1 cm high) which serves as a tactile guide to animals on these open areas.
Subjects were weighed and tail marked before being injected. After a specified pretreatment time, subjects were placed in a closed quadrant and a 5-min test period were recorded on videotape for subsequent analysis. The maze were cleaned with 5% methanol/water solution and dried thoroughly between test sessions. Behavioural measures comprise percentage time spent on the open areas (% TO) and frequency of stretched attend postures (SAP) from closed to open quadrants. Since the control groups were all treated identically with the same vehicle these were combined to increase power. The Chlordiazepoxide groups were also treated identically with the same dose so these were also combined to increase power. Animals are scored as being in the open area when all four paws were in an open quadrant and in the closed area only when all four paws have passed over the open-closed divide. All testing were carried out between 9.00 and 16.00 hours.
Drug Versus Vehicle Treatments For each study, a 1-way ANOVA was conducted across vehicle, CDP, and drug treatment groups. Each group was compared to the vehicle group and a p-value for treatment determined by Fishers Least Significant Difference (LSD) test. This analysis was performed in GraphPad Prism (Version 9).Formulations: […]
Intraperitoneal (IP): Racemic methylone HCl was formulated in Vehicle 1 (Saline) for injection to concentrations of 1, 3 and 6 mg/mL to provide doses of 5, 15 and 30 mg/kg when administered ip in 5 mL/kg dosing volumes.
Intraperitoneal (IP): S-methylone HCl was formulated in Vehicle 1 (Saline) for injection to concentrations of 0.5, 1, 1.5, 3 and 6 mg/mL to provide doses of 2.5, 5, 7.5, 15 and 30 mg/kg when administered ip in 5 mL/kg dosing volumes.
Intraperitoneal (IP): R-methylone HCl was formulated in Vehicle 1 (Saline) for injection to concentrations of 1, 3 and 6 mg/mL to provide doses of 5, 15 and 30 mg/kg when administered ip in 5 mL/kg dosing volumes. […]

[1] = Metabolic stability in human liver microsomes; type: in vitro ADME; settings: pooled liver microsomes, pH 7.4; human liver microsomes 0.5 mg/mL, 1 μM compound, NADPH, 0-45 min
Procedure: Pooled liver microsomes are purchased from a reputable commercial supplier. Microsomes are stored at […] prior to use. Microsomes (final protein concentration 0.5 mg/mL), 0.1 M phosphate buffer pH 7.4 and test compound (final substrate concentration 1 μM; final DMSO concentration 0.25%) are preincubated at 37° C. prior to the addition of NADPH (final concentration 1 mM) to initiate the reaction. A minus cofactor control incubation is included for each compound tested where 0.1 M phosphate buffer pH 7.4 is added instead of NADPH (minus NADPH). Two control compounds are included with each species. All incubations are performed singularly for each test compound. Each compound is incubated for 0, 5, 15, 30 and 45 min. The control (minus NADPH) is incubated for 45 min only. The reactions are stopped by transferring incubate into acetonitrile at the appropriate time points, in a 1:3 ratio. The termination plates are centrifuged at 3,000 rpm for 20 min at 4° C. to precipitate the protein.
From a plot of ln peak area ratio (compound peak area/internal standard peak area) against time, the gradient of the line is determined. Subsequently, half-life and intrinsic clearance are calculated using the equations below:
where V=Incubation volume (μL)/Microsomal protein (mg)
Relevant control compounds were assessed, ensuring intrinsic clearance values fall within the specified limits (if available).

[2] = 30 mg/kg ip vs chlordiazepoxide 6 mg/kg ip

## CN[C@H](C)C(=O)c1ccc2c(c1)OCO2 [(R)-Methylone Hydrochloride, (R)-1-(Benzo[d][1,3]dioxol-5-yl)-2-(methylamino)propan-1-one Hydrochloride]
Sprague-Dawley rats; [2]
  decrease in SAPs compared with chlordiazepoxide: to the same level as chlordiazepoxide
  time spent in the open arms compared with chlordiazepoxide: as effective as chlordiazepoxide
Sprague-Dawley rats; 30 mg/kg ip
  frequency of stretched attend postures (SAPs): significantly decreasing SAPs
Sprague-Dawley rats; 5, 15 and 30 mg/kg ip
  frequency of SAPs, dose dependence: dose dependent decrease in SAPs
  time spent in the open arms, dose dependence: dose dependent increase in time spent in the open arms
Sprague-Dawley rats
  anxiogenic effect: did not show any anxiogenic effect at any dose
  anxiolytic effect: effective anxiolytics
[1]
  half-life at 1 μM: 3.38 h
  microsomal CLint at 1 μM: 6.82 µL/min/mg

## CNC(C)C(=O)c1ccc2c(c1)OCO2 (racemic) [(rac)-Methylone Hydrochloride, 3,4-methylenedioxy-N-methylcathinone hydrochloride]
Sprague-Dawley rats; 5 mg/kg ip
  time spent in the open arms: a decrease in time spent in the open arms vs placebo
Sprague-Dawley rats; 15 mg/kg ip vs chlordiazepoxide 6 mg/kg ip
  decrease in SAPs compared with chlordiazepoxide: not as effective as chlordiazepoxide
Sprague-Dawley rats; 15 mg/kg ip
  frequency of stretched attend postures (SAPs): dose dependent decrease in SAPs
  time spent in the open arms: no difference from placebo
Sprague-Dawley rats; 30 mg/kg ip
  frequency of stretched attend postures (SAPs): a decrease in SAPs
  time spent in the open arms: a significant decrease in time spent in the open arms
Sprague-Dawley rats
  anxiogenic effect: show anxiogenic effects at lower doses
  anxiolytic effect: effective anxiolytics
[1]
  half-life at 1 μM: 2.62 h
  microsomal CLint at 1 μM: 8.84 µL/min/mg

## CN[C@@H](C)C(=O)c1ccc2c(c1)OCO2 [(S)-Methylone Hydrochloride, (S)-1-(Benzo[d][1,3]dioxol-5-yl)-2-(methylamino)propan-1-one Hydrochloride]
Sprague-Dawley rats; 2.5 mg/kg ip
  frequency of stretched attend postures (SAPs): dose dependent increase in SAPs
Sprague-Dawley rats; 5 mg/kg ip
  frequency of stretched attend postures (SAPs): dose dependent increase in SAPs
  time spent in the open arms: the time spent in the open arms decreased as the dose increased
Sprague-Dawley rats; 7.5 mg/kg ip
  frequency of stretched attend postures (SAPs): dose dependent decrease in SAPS
  time spent in the open arms: the time spent in the open arms decreased as the dose increased
Sprague-Dawley rats; 15 mg/kg ip
  frequency of stretched attend postures (SAPs): dose dependent decrease in SAPS
  time spent in the open arms: the time spent in the open arms decreased as the dose increased
Sprague-Dawley rats; [2]
  decrease in SAPs compared with chlordiazepoxide: even more effective than chlordiazepoxide
  time spent in the open arms compared with chlordiazepoxide: as effective as chlordiazepoxide
Sprague-Dawley rats; 30 mg/kg ip
  frequency of stretched attend postures (SAPs): dose dependent decrease in SAPS
  time spent in the open arms: the time in the open arms increased
Sprague-Dawley rats
  anxiogenic effect: show anxiogenic effects at lower doses
  anxiolytic effect: effective anxiolytics
[1]
  half-life at 1 μM: 2.28 h
  microsomal CLint at 1 μM: 10.1 µL/min/mg
